From PMC8226474, “Design, Syntheses, and Bioevaluations of Some Novel N^2-Acryloylbenzohydrazides as Chemostimulants and Cytotoxic Agents” (Medicines, 2021)
Values joined by “and” are separate entries in the source; they are usually repeats but may differ in a detail not shown here. Equal entries are not always repeated. Where two headings read alike, the source gives them in different places.

What was measured:
HCT 116 cells [1] = assay: Cytotoxicity assay, HCT 116 colon cancer cells; type: cell-based, human; conditions: for inhibition at 10 µM / inhibition at 100 µM / IC50: Homo sapiens, HCT-116, 48 h; for inhibition at 10 µM / inhibition at 100 µM: read-out: percentage inhibition of HCT 116 cells; for SI (selectivity index): IC50 CRL 1790 / IC50 HCT 116
From the text: (§1) Evaluation of the cytotoxic properties of the compounds presented in Table 1, Table 2, Table 3 and Table 4 was undertaken using the procedure outlined in [7]. In brief, the HCT 116 cells were obtained from the ATCC and cultured in McCoy’s 5A medium. The CRL 1790 cells were obtained from the ATCC and cultured in Minimum Essential Medium. The MCF-7 and MDA-MBA-231 cells were obtained from the Saskatchewan Cancer Agency and cultured in DMEM. In each assay the culture medium was supplemented with 10% fetal bovine serum and 1% penicillin–streptomycin antibiotics. The time of the bioassays was 48 h, unless indicated otherwise. All determinations were carried out in triplicate on three different occasions.

MDA-MB-231 cells = assay: Cytotoxicity assay, MDA-MB-231 breast cancer cells; type: cell-based, human; conditions: for inhibition at 10 µM / inhibition at 100 µM / IC50: Homo sapiens, MDA-MB-231, 48 h; for inhibition at 10 µM / inhibition at 100 µM: read-out: percentage inhibition of MDA-MB-231 cells; for IC50 / SI (selectivity index): Table 2; for IC50: read-out: Neoplastic Cells IC50, MDA-MB-231; for SI (selectivity index): IC50 CRL 1790 / IC50 MDA-MB-231
From the text: as §1

MCF-7 cells = assay: Cytotoxicity assay, MCF-7 breast cancer cells; type: cell-based, human; conditions: for inhibition at 10 µM / inhibition at 100 µM / IC50: Homo sapiens, MCF7, 48 h; for inhibition at 10 µM / inhibition at 100 µM: read-out: percentage inhibition of MCF-7 cells; for IC50 / SI (selectivity index): Table 2; for IC50: read-out: Neoplastic Cells IC50, MCF-7; for SI (selectivity index): IC50 CRL 1790 / IC50 MCF-7
From the text: as §1

CRL 1790 cells = assay: Cytotoxicity assay, non-malignant CRL 1790 colon cells; type: cell-based
From the text: as §1

HCT 116 cells [2] = assay: Chemosensitization of HCT 116 cells: 1m for 24 h, then 2a or 5-FU for a further 24 h; type: cell-based, human; conditions: for Reduction in Live Cells % 2a (24 h): DMSO figure minus compound figure
From the text: as §1
The next phase of the investigation was to determine whether a representative compound in series 1 chemosensitizes HCT 116 cells to a 3,5-bis(benzylidene)-4-piperidone 2a. […] The colon cancer cells were incubated for 24 h with 1m, and then 2a was added and the incubation was continued for a further 24 h. Different concentrations of both 1m and 2a were employed, and the results are presented as entries 1–12 in Table 3. In addition, the effects of each of 1m, 2a, and 5-FU on HCT 116 cells (which are necessary for the evaluation of whether chemosensitivity occurs) were recorded, and are presented as entries 13–20 in Table 3.
The concentration of 1m in combination 4 is 5 µM, which after 48 h causes a percentage reduction of live cells to 86% (DMSO figure after 48 h, line 20) minus 75% (48 h, line 13), or 11%.
The concentration of 2a in combination 4 is 0.2 µM. This combination leads to a reduction of the percentage of live cells to 91% (DMSO figure after 24 h, line 20) minus 69%, or 22%.
The percentage reduction in live cells caused by a combination of 1m (5 µM) and 2a (0.2 µM), in the absence of chemosensitization, is 11% plus 22%, or 33%.
However, the percentage reduction in cells as indicated on line 4 is 86% (DMSO figure after 48 h) minus 12% (line 4, 48 h figure), or 74%.

[3] = Table 2, read-out: Neoplastic Cells IC50, HCT 116
[4] = Table 4, read-out: IC50 HCT 116
[5] = Homo sapiens, 48 h, Table 2, read-out: Non-Malignant CRL 1790 Cells IC50
[6] = Homo sapiens, 48 h, Table 4, read-out: IC50 CRL 1790

melting point [°C]	Structure (SMILES)	inhibition at 10 µM (HCT 116 cells [1]) [%]	inhibition at 100 µM (HCT 116 cells [1]) [%]	inhibition at 10 µM (MDA-MB-231 cells) [%]	inhibition at 100 µM (MDA-MB-231 cells) [%]	inhibition at 10 µM (MCF-7 cells) [%]	inhibition at 100 µM (MCF-7 cells) [%]	IC50 (HCT 116 cells [1]; [4]) [µM]	SI (selectivity index) (HCT 116 cells [1]; Table 4)	IC50 (CRL 1790 cells; [6]) [µM]	other results
138 to 140	C=CC(=O)NNC(=O)c1cccc(C)c1 [1i, N^2-Acryloyl-3-methylbenzohydrazide]	15.4 ± 2.13	93.9 ± 3.35	-5.91 ± 3.86	53.3 ± 2.89	-82.8 ± 3.48	44.2 ± 2.96				
	O=c1[nH]cc(F)c(=O)[nH]1 [5-FU, 5-fluorouracil, reference compound]	84.7 ± 2.53	94.1 ± 0.96	17.4 ± 2.97	> 100	91.2 ± 3.03	99.3 ± 2.87	4.11 ± 0.22	2.64	10.8 ± 1.64	IC50 (HCT 116 cells [1]; [3]): 3.77 ± 0.48 µM; SI (selectivity index) (HCT 116 cells [1]; Table 2): 2.92; IC50 (MDA-MB-231 cells): 15.9 ± 1.65 µM; SI (selectivity index) (MDA-MB-231 cells): 0.68; IC50 (CRL 1790 cells; [5]): 10.8 ± 1.64 µM; Reduction in Live Cells % 2a (24 h) (HCT 116 cells [2]; 5-FU 3 µM alone, 24 h): 13%; Live Cells % (HCT 116 cells [2]; entry 19: 5-FU 3 µM alone, 24 h): 78 ± 2.44%; Live Cells % (HCT 116 cells [2]; entry 19: 5-FU 3 µM alone, 48 h): 55 ± 1.37%; IC50 (MCF-7 cells): 2 ± 0.25 µM; SI (selectivity index) (MCF-7 cells): 5.42
157 to 160	C=CC(=O)NNC(=O)c1ccc(C)cc1 [1k, N^2-Acryloyl-4-methylbenzohydrazide]	11.5 ± 2.99	> 100	-8.78 ± 1.52	74.7 ± 2.96	55.3 ± 3.05	> 100				IC50 (CRL 1790 cells; [5]): > 100 µM; IC50 (MCF-7 cells): 5.54 ± 0.51 µM; SI (selectivity index) (MCF-7 cells): >18.1
172 to 175	C=CC(=O)NNC(=O)c1ccc(Cl)c(Cl)c1 [1g, N^2-Acryloyl-3,4-dichlorobenzohydrazide]	6.72 ± 1.97	> 100	-19.4 ± 3.01	139.8 ± 1.03	-50.5 ± 3.27	97.4 ± 2.6				
198 to 200	COc1ccc(C(=O)NNC(=O)CCN2CC(=Cc3ccc(F)cc3)C(=O)C(=Cc3ccc(F)cc3)C2)cc1OC [7d, 3,5-Bis(4-fluorobenzylidene)-1-[3-(3,4-dimethoxyphenylcarbonylaminoamino)-3-oxo-1-propyl]-4-piperidone]							3.82 ± 0.11	2.99	11.4 ± 2.22	
175 to 178	COc1ccc(C=C2CN(CCC(=O)NNC(=O)c3ccc(OC)c(OC)c3)CC(=Cc3ccc(OC)cc3)C2=O)cc1 [7f, 3,5-Bis(4-methoxybenzylidene)-1-[3-(3,4-dimethoxyphenylcarbonylaminoamino)-3-oxo-1-propyl]-4-piperidone]							2.87 ± 0.23	3.86	11.1 ± 0.52	
171 to 172	CC(=O)NNC(=O)c1ccccc1 [6b, N^2-Acetylbenzohydrazide]	-4.89 ± 2.52	13.6 ± 3.03	-22.6 ± 2.65	-15.3 ± 3.46	-93.8 ± 4.15	-58.7 ± 3.24				
	C=CC(=O)NNC(=O)c1ccc(F)cc1 [1b, N^2-Acryloyl-4-fluorobenzohydrazide]	-2.35 ± 2.24	60.7 ± 3.22	-7.37 ± 1.52	39.9 ± 2.51	-40.1 ± 3.34	33.2 ± 3.13				
256 to 259	C=CC(=O)NNC(=O)c1ccc(Br)cc1 [1c, N^2-Acryloyl-4-bromobenzohydrazide]	-3.28 ± 1.5	87.9 ± 0.91	-16.5 ± 1.45	88.7 ± 1.26	-4.68 ± 3.17	46.6 ± 3.35				
106 to 107	CCC(=O)NNC(=O)c1ccccc1 [6a, N^2-Propionylbenzohydrazide]	-10.5 ± 2.93	9.35 ± 2.53	-25.3 ± 1.82	-11.6 ± 2.52	-19.6 ± 3.66	-5.69 ± 2.54				IC50 (HCT 116 cells [1]; [3]): > 100 µM; SI (selectivity index) (HCT 116 cells [1]; Table 2): ~1.00; IC50 (CRL 1790 cells; [5]): > 100 µM
165 to 167	C=CC(=O)NNC(=O)c1ccccc1Cl [1e, N^2-Acryloyl-2-chlorobenzohydrazide]	4.3 ± 1.38	75.7 ± 1.65	-7.15 ± 2.29	91.9 ± 4.53	8.66 ± 1.81	75.8 ± 2.76				
155 to 158	C=CC(=O)NNC(=O)c1cccc(Cl)c1 [1f, N^2-Acryloyl-3-chlorobenzohydrazide]	13.5 ± 1.79	95.7 ± 1.71	15.6 ± 3.14	98.7 ± 0.92	-15.5 ± 3.38	85.9 ± 2.7				
151 to 154	COc1ccc(C(=O)NNC(=O)CCN2CC(=Cc3ccccc3)C(=O)C(=Cc3ccccc3)C2)cc1OC [7b, 3,5-Bis(benzylidene)-1-[3-(3,4-dimethoxylphenylcarbonylaminoamino)-3-oxo-1-propyl]-4-piperidone]							3.15 ± 0.33	3.06	9.63 ± 1.62	times more potent than 1m (HCT 116 cells [1]; ratio of IC50 values towards HCT 116 cells): 4.86 times
200 to 202	COc1ccc(C(=O)NNC(=O)CCN2CC(=Cc3ccc(Cl)cc3)C(=O)C(=Cc3ccc(Cl)cc3)C2)cc1OC [7c, 3,5-Bis(4-chlorobenzylidene)-1-[3-(3,4-dimethoxyphenylcarbonylaminoamino)-3-oxo-1-propyl]-4-piperidone]							3.4 ± 0.01	3.60	12.2 ± 1.22	
193 to 195	O=C(CCNNC(=O)c1ccccc1)NNC(=O)c1ccccc1 [6c, N^2-[3-(Benzoylaminoamino)-1-oxopropyl]-N^1-benzoylhydrazine]	18.6 ± 3.98	96.9 ± 1.86	-16 ± 2.91	95.6 ± 4.22	16.1 ± 3.55	97.9 ± 2.68				
	N[C@@H](Cc1ccc(N(CCCl)CCCl)cc1)C(=O)O [Melphalan, reference compound]	33.9 ± 1.81	98.7 ± 1.12	28.6 ± 2.48	> 100	> 100	> 100	33.2 ± 1.7	>3.02		IC50 (HCT 116 cells [1]; [3]): 30.7 ± 2.73 µM; SI (selectivity index) (HCT 116 cells [1]; Table 2): >3.25; IC50 (MDA-MB-231 cells): 52.9 ± 2.32 µM; SI (selectivity index) (MDA-MB-231 cells): >1.90; IC50 (CRL 1790 cells; Homo sapiens; Table 2; 48 h; read-out: Non-Malignant CRL 1790 Cells IC50): > 100 µM; IC50 (CRL 1790 cells; Homo sapiens; Table 4; 48 h; read-out: IC50 CRL 1790): > 100 µM; IC50 (MCF-7 cells): 12 ± 1.43 µM; SI (selectivity index) (MCF-7 cells): >8.32
	O=C1C(=Cc2ccccc2)CNCC1=Cc1ccccc1 [2a, 3,5-bis(benzylidene)-4-piperidone]							0.37 ± 0.06	36.4	13.5 ± 1.99	Reduction in Live Cells % 2a (24 h) (HCT 116 cells [2]; 2a 0.1 µM alone, 24 h): 8%; Reduction in Live Cells % 2a (24 h) (HCT 116 cells [2]; 2a 0.2 µM alone, 24 h): 22%; Reduction in Live Cells % 2a (24 h) (HCT 116 cells [2]; 2a 0.4 µM alone, 24 h): 43%; Live Cells % (HCT 116 cells [2]; entry 16: 2a 0.1 µM alone, 24 h): 83 ± 2.28%; Live Cells % (HCT 116 cells [2]; entry 16: 2a 0.1 µM alone, 48 h): 78 ± 2.12%; Live Cells % (HCT 116 cells [2]; entry 17: 2a 0.2 µM alone, 24 h): 69% and 69 ± 1.38%; Live Cells % (HCT 116 cells [2]; entry 17: 2a 0.2 µM alone, 48 h): 52 ± 1.15%; Live Cells % (HCT 116 cells [2]; entry 18: 2a 0.4 µM alone, 24 h): 48 ± 1.20%; Live Cells % (HCT 116 cells [2]; entry 18: 2a 0.4 µM alone, 48 h): 32 ± 1.50%
